Reference: PubChem BioAssay (NCI)
Where “and” joins values, the source holds several entries; their conditions need not be identical. Equal entries are not always repeated.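 Following 48 hours of exposure in 96-well plates, responses at five concentrations were used to interpolate endpoints linearly. Here, GI50 denotes the concentration required for 50% inhibition of growth. TGI: total growth inhibition.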

Key:
Experiment in all cases: DTP human tumour cell line panel, 48 h
A549 NSCLC = system: A549 NSCLC
DU-145 prostate = system: DU-145 prostate
HS 578T breast = system: HS 578T breast
NCI-H460 lung = system: NCI-H460 lung
NCI/ADR-RES ovarian = system: NCI/ADR-RES ovarian
PC-3 prostate = system: PC-3 prostate
T-47D breast = system: T-47D breast
TK-10 renal = system: TK-10 renal
U251 CNS = system: U251 CNS
UO-31 renal = system: UO-31 renal

Compound | TGI (A549 NSCLC) | TGI (DU-145 prostate) | TGI (HS 578T breast) | TGI (NCI-H460 lung) | TGI (NCI/ADR-RES ovarian) | TGI (PC-3 prostate) | TGI (T-47D breast) | TGI (TK-10 renal) | TGI (U251 CNS) | TGI (UO-31 renal) | GI50 (A549 NSCLC) | GI50 (DU-145 prostate) | GI50 (HS 578T breast) | GI50 (NCI-H460 lung) | GI50 (NCI/ADR-RES ovarian) | GI50 (PC-3 prostate) | GI50 (T-47D breast) | GI50 (TK-10 renal) | GI50 (U251 CNS) | GI50 (UO-31 renal)
CC(C)OC(=O)Nc1c([N+](=O)[O-])cc(C(F)(F)F)cc1[N+](=O)[O-] | > 100 µM | > 100 µM | > 100 µM | > 100 µM | > 100 µM | > 100 µM | > 100 µM | > 100 µM | > 100 µM | > 100 µM | – | – | – | – | – | – | – | – | – | –
C=CC(=O)N1CCN([C@@H](CC2CC2)c2ccc([C@H](C)Nc3ncc4c(n3)N(CC)C(=O)OC4)cc2)CC1 | 28.7 µM | 25.4 µM | 55.6 µM | 29.7 µM | > 100 µM | 31.4 µM | 61.3 µM | 23.1 µM | 26.3 µM | 26.3 µM | 11.4 µM | 12.7 µM | 9.19 µM | 14.2 µM | 21.5 µM | 12 µM | 14.8 µM | 9.02 µM | 11.8 µM | 10.8 µM
COc1cc(OC)c(OC)cc1/C=C/c1ccccn1 | > 10 µM | > 10 µM | > 10 µM | > 10 µM | > 10 µM | > 10 µM | > 10 µM | > 10 µM | > 10 µM | > 10 µM | – | – | – | – | – | – | – | – | – | –
CN1CCN(CCCOC(=O)c2c3c(n4ccccc24)C(=O)c2ncccc2C3=O)CC1 | 0.0593 µM | 1.3 µM | 1.15 µM | < 0.0118 µM | 12.9 µM | 16.7 µM | 29.6 µM | 21.6 µM | 0.0768 µM | – | < 0.01 µM | < 0.01 µM | < 0.0268 µM | < 0.01 µM | < 0.0107 µM | < 0.0232 µM | 1.89 µM | 0.113 µM | < 0.01 µM | < 0.01 µM
CCOc1cc(/C=C/C(=O)CC(=O)/C=C/c2ccc(OC(=O)CNc3nc4ccc(OC)cc4s3)c(OCC)c2)ccc1OC(=O)CNc1nc2ccc(OC)cc2s1 | 31 µM | 12.3 µM | 23.9 µM | 23.4 µM | > 100 µM | 67.3 µM | 43.1 µM | 27.5 µM | 14.5 µM | > 100 µM | 4.94 µM | 3.17 µM | 3.16 µM | 5.1 µM | 20 µM | 5.08 µM | 10.6 µM | 11.4 µM | 3.93 µM | 2.58 µM
CC[C@@H]1C(=O)N(C)c2cnc(Nc3ccc(C(=O)NC4CCC(N5CCN(CC6CC6)CC5)CC4)cc3OC)nc2N1C(C)C (stereo partly specified) | – | > 10 µM and 16.8 µM | 1.97 µM | > 10 µM and 1.86 µM | > 10 µM and 28.9 µM | > 10 µM and 17.7 µM | > 10 µM and 21.9 µM | > 10 µM and 8.62 µM | > 7.97 µM and 2.14 µM | > 10 µM and 7.53 µM | 0.0308 µM and 0.0348 µM | 0.0118 µM and 0.0379 µM | 0.0323 µM and 0.111 µM | 0.0123 µM and 0.0297 µM | 0.249 µM and 0.245 µM | 0.0287 µM and 0.0366 µM | 0.155 µM and 0.113 µM | 0.128 µM and 0.0776 µM | 0.0263 µM and 0.0276 µM | 0.234 µM and 0.345 µM
CCCCCCCCCCCC(c1ccccc1)[N+](C)(C)C (stereo unspecified) | 3.97 µM | 7.51 µM | 3.28 µM | 3.2 µM | > 100 µM | 2.52 µM | 9.79 µM | 2.49 µM | 2.49 µM | 26.9 µM | 1.46 µM | 1.56 µM | 1.16 µM | 1.28 µM | > 100 µM | 0.393 µM | 1.9 µM | 0.788 µM | 1.14 µM | 10.7 µM
N#CSc1c[nH]c2ccc(/C=C/C(=O)/C=C(O)/C=C/c3ccc4[nH]cc(SC#N)c4c3)cc12 | 14.7 µM | 4.56 µM | 35.2 µM | 11.2 µM | 52.7 µM | 2.03 µM | 8.82 µM | 23.8 µM | 9.09 µM | 1.66 µM | 3.25 µM | 1.92 µM | 2.98 µM | 3.01 µM | 3.22 µM | 0.343 µM | 1.97 µM | 3.35 µM | 1.17 µM | 0.344 µM
OC(c1ccccc1)c1c(-c2ccccc2)[nH]c(-c2ccccc2)c1C(O)c1ccccc1 (stereo unspecified) | 18.9 µM | 20 µM | 18.9 µM | 14.2 µM | 8.02 µM | 21.1 µM | 40.4 µM | 18.9 µM | 18.5 µM | 5.78 µM | – | – | – | – | – | – | – | – | – | –
COc1ccc(-c2cc(=O)c3c(C)ccnc3[nH]2)cc1 | > 100 µM | > 100 µM | 77.1 µM | > 100 µM | > 100 µM | > 100 µM | > 100 µM | > 100 µM | > 100 µM | > 100 µM | – | – | – | 6.19 µM | – | 18.1 µM | – | – | 6.3 µM | –
COc1cccc2c1C(=O)c1c(O)c3c(c(O)c1C2=O)C[C@@](O)(/C(C)=N/NC(=O)c1cccc([N+](=O)[O-])c1)C[C@@H]3OC1CC(N)C(O)C(C)O1 (stereo partly specified) | 11.8 µM | 1.81 µM | 5.5 µM | 12.9 µM | 35.8 µM | 8.74 µM | 1.26 µM | 10.2 µM | 14 µM | > 22 µM | 0.362 µM | 0.272 µM | 0.561 µM | 0.0548 µM | 5.26 µM | 0.616 µM | 0.176 µM | 0.896 µM | 0.22 µM | 0.882 µM
Clc1cccc(-c2cc(-c3ccc4c(c3)OCCO4)[nH]n2)c1 | 44.5 µM | 38.9 µM | 63.3 µM | 31.8 µM | 33.8 µM | 45.8 µM | 53.8 µM | 56.1 µM | 43 µM | 43.9 µM | 1.55 µM | 8.74 µM | 6.67 µM | 1.01 µM | 1.11 µM | 4.87 µM | 3.64 µM | 13.9 µM | 6.83 µM | 9.27 µM
CN1CCC2(CC1)C(=O)Nc1cc(NC(=O)c3ccc4c(c3)C[C@@H]3C(C)(C)[C@H](O)[C@H](F)C[C@@]3(C)O4)ccc12 | 37.2 µM | 57.6 µM | 2.24 µM | 25.4 µM | > 100 µM | > 100 µM | 28.8 µM | 76.3 µM | 16.4 µM | 19.1 µM | 2.74 µM | 10.6 µM | 0.0232 µM | 0.684 µM | > 100 µM | 0.117 µM | 5.67 µM | 21.4 µM | 0.0472 µM | 4.67 µM
